From article PMC9510750, “Design, synthesis and biological evaluation of novel O-substituted tryptanthrin oxime derivatives as c-Jun N-terminal kinase inhibitors” (Frontiers in Pharmacology, 2022)
Where two headings read alike, the source gives them in different places.

Columns and labels:
[1] = target: T1, JNK1 (Homo sapiens, UniProt P45983); test: KINOMEscan ATP site-dependent binding assay, JNK1; settings: mixture of E/Z isomers, read-out: Binding affinity JNK1 Kd
T1 construct: purchased Eurofins Pharma Discovery (KINOMEscan platform)
T1 sequence (P45983 whole entry): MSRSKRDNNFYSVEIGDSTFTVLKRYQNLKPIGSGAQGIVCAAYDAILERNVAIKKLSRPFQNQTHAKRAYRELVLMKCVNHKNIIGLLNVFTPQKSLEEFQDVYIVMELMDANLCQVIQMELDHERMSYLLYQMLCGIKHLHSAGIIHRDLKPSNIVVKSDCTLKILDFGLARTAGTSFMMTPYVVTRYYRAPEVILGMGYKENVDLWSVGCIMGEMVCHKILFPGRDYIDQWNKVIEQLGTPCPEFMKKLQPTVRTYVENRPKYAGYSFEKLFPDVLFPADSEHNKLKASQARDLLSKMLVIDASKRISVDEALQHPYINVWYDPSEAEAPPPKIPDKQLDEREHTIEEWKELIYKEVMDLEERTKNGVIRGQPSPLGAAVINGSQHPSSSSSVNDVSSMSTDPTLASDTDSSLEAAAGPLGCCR
Description: (§1) Selected compounds were submitted for dissociation constant (Kd) determination using the KINOMEscan platform (Eurofins Pharma Discovery, San Diego, CA, United States), as described previously ([Karaman et al., 2008]). […] Primary screening at fixed concentrations of compounds was performed in duplicate.

[2] = target: T2, JNK2 (Homo sapiens, UniProt P45984); test: KINOMEscan ATP site-dependent binding assay, JNK2; settings: mixture of E/Z isomers, read-out: Binding affinity JNK2 Kd
T2 construct: purchased Eurofins Pharma Discovery (KINOMEscan platform)
T2 sequence (P45984 whole entry): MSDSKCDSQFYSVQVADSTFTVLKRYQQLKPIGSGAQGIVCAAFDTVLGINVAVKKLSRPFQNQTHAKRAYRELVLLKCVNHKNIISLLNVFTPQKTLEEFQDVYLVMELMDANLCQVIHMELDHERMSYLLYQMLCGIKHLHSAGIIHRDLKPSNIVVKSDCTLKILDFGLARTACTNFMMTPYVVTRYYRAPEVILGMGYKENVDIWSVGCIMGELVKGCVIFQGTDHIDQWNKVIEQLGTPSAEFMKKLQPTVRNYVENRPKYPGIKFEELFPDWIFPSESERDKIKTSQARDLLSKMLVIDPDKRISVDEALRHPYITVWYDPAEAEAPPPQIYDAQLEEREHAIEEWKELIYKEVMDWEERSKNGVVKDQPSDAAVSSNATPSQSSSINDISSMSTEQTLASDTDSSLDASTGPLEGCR
Description: as §1

[3] = target: T3, JNK3 (Homo sapiens, UniProt P53779); test: KINOMEscan ATP site-dependent binding assay, JNK3; settings: for Kd: KINOMEscan, mixture of E/Z isomers, read-out: Binding affinity JNK3 Kd
T3 construct: purchased Eurofins Pharma Discovery (KINOMEscan platform)
T3 sequence (P53779 whole entry): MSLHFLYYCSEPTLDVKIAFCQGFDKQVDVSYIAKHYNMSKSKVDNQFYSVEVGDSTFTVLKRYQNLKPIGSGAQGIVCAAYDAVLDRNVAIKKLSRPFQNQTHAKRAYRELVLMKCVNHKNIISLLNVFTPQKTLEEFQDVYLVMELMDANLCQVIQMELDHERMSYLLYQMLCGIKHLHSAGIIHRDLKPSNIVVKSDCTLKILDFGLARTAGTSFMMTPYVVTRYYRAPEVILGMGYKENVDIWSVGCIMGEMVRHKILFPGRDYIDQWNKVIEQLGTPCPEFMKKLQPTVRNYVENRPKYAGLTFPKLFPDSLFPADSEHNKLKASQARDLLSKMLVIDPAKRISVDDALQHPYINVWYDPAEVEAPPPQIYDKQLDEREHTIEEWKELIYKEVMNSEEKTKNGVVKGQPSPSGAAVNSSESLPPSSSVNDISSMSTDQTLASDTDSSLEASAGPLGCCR
Description: as §1

[4] = tested on: NF-κB/AP-1 transcriptional activity in THP-1Blue cells; test: LPS-induced NF-κB/AP-1 alkaline phosphatase reporter assay in THP-1Blue cells; format: cell-based; settings: Homo sapiens; LPS 250 ng/ml, 24 h
Description: (§2) All cells were cultured at 37°C in a humidified atmosphere containing 5% CO2. THP-1Blue cells obtained from InvivoGen (San Diego, CA, United States) were cultured in RPMI 1640 medium (Mediatech Inc., Herndon, VA, United States) supplemented with 10% (v/v) fetal bovine serum (FBS), 4.5 g/L glucose, 100 μg/ml streptomycin, 100 U/mL penicillin, 100 μg/ml phleomycin (Zeocin), and 10 μg/ml blasticidin S. Human monocyte-macrophage MonoMac-6 cells (Deutsche Sammlung von Mikroorganismen und Zellkulturen GmbH, Braunschweig, Germany) were grown in RPMI 1640 medium supplemented with 10% (v/v) FBS, 10 μg/ml bovine insulin, 100 μg/ml streptomycin, and 100 U/mL penicillin.
Activation of AP-1/NF-κB was measured using an alkaline phosphatase reporter gene assay in THP1-Blue cells. Human monocytic THP-1Blue cells are stably transfected with a secreted embryonic alkaline phosphatase gene that is under the control of a promoter inducible by AP-1/NF-κB. THP-1Blue cells (2 × 10^5 cells/well) were pretreated with test compound or DMSO (1% final concentration) for 30 min, followed by addition of 250 ng/ml LPS (from Escherichia coli K-235; Sigma Chemical Co., St. Louis, MO, United States) for 24 h, and alkaline phosphatase activity was measured in cell supernatants using QUANTI-Blue mix (InvivoGen) with absorbance at 655 nm and compared with positive control samples (LPS). The concentrations of compound that caused 50% inhibition of the AP-1/NF-κB reporter activity (IC50) were calculated.

[5] = tested on: IL-6 production in MonoMac-6 cells; test: LPS-induced IL-6 production in MonoMac-6 cells (ELISA); format: cell-based; settings: Homo sapiens, MONO-MAC-6; LPS 250 ng/ml, 24 h
Description: as §2
(§3) Human IL-6 ELISA kit (BD Biosciences, San Jose, CA, United States) was used to confirm the inhibitory effect of selected compounds on IL-6 production. MonoMac-6 cells were plated in 96-well plates at a density of 2 × 10^5 cells/well in culture medium supplemented with 3% (v/v) endotoxin-free FBS. Cells were pretreated with test compound or DMSO (1% final concentration) for 30 min, followed by addition of 250 ng/ml LPS for 24 h. IC50 values for IL-6 production were calculated by plotting the percentage inhibition against the logarithm of inhibitor concentration (at least five points). Multiplex human cytokine ELISA kit from Anogen (Mississauga, ON, Canada) was used to evaluate various cytokines (IL-1α, IL-1β, IL-6, GM-CSF, MCP-1, IFNγ, and TNF) in the supernatants of MonoMac-6 cells.

[6] = Solubility in DMSO for the binding affinity assay; format: physicochemical; settings: insufficiently soluble in DMSO for the binding affinity assay
Description: TABLE 1 Binding affinity (Kd) of compounds 1a-o and their inhibitory effect on LPS-induced NF-κB/AP-1 transcriptional activity in THP-1Blue cells and IL-6 production in MonoMac-6 cells. | column: Binding affinity / JNK1

[7] = tested on: c-Jun (Ser63) phosphorylation in MonoMac-6 cells; test: LPS-induced c-Jun (Ser63) phosphorylation, Western blotting; format: cell-based, human; settings: 30 min pretreatment, LPS 250 ng/ml 30 min, phospho-c-Jun/total c-Jun
Description: MonoMac-6 monocytic cells (10^7 cells) were incubated with different concentrations of compound 1j (final DMSO concentration of 0.5%) for 30 min at 37°C and then treated with LPS (250 ng/ml) or buffer for another 30 min at 37°C. Cells were washed twice with ice-cold phosphate buffer solution (pH 7.4), and cell lysates were prepared using lysis buffer (Cell Signaling Technology, Danvers, MA, United States). Cell lysates were separated on ExpressPlus 10% PAGE Gels (GenScript, Piscataway, NJ, United States) using TRIS-MOPS running buffer and transferred to nitrocellulose membranes. The blots were blocked overnight at 4°C in TRIS buffer (pH 7.4) + 0.1% Tween-20 (TBST) + 2.5% bovine serum albumin and probed with antibodies against phospho-c-Jun (Ser63) (Cell Signaling Technology), followed by horseradish peroxidase-conjugated secondary antibody (Cell Signaling Technology), and the blots were developed using Super-Signal West Femto chemiluminescent substrate (Thermo Fisher Scientific) and visualized with a FluorChem FC2 imaging system (Alpha Innotech Corporation, San Leandro, CA, United States). For measurement of total c-Jun signal, we stripped and reprobed the same Western blots that were used for phospho-c-Jun blots. […] Quantitation of the luminescent signals were performed using AlphaView software.

[8] = tested on: proinflammatory cytokine production in MonoMac-6 cells; test: Multiplex human cytokine ELISA, LPS-stimulated MonoMac-6 cells; format: cell-based; settings: 10 μM, LPS 250 ng/ml 24 h
Description: as §3

[9] = tested on: NF-κB/AP-1 transcriptional activity in THP-1Blue cells; design: method as in Schepetkin et al., 2019; settings: LPS-stimulated; ref Schepetkin et al., 2019; cited from earlier work
[10] = tested on: IL-6 production in MonoMac-6 cells; design: method as in Schepetkin et al., 2019; settings: LPS-stimulated; ref Schepetkin et al., 2019; cited from earlier work

Kd [1]	Kd [2]	Kd [3]	IC50 [4]	IC50 [5]	melting point	Structure (SMILES)	also measured
3.1 ± 0.8 µM	5.6 ± 0.4 µM	1.4 ± 0.2 µM	20.8 ± 5.3 µM	23.5 ± 1.8 µM	218 °C	CON=C1c2ccccc2-n2c1nc1ccccc1c2=O [Compound 1a, 6-(methoxyimino)indolo[2,1-b]quinazolin-12(6H)-one]	
3.2 ± 1.2 µM	5.4 ± 0.6 µM	1.2 ± 0.4 µM	≥ 50 µM	≥ 50 µM	117 °C	CCON=C1c2ccccc2-n2c1nc1ccccc1c2=O [Compound 1b, 6-(ethoxyimino)indolo[2,1-b]quinazolin-12(6H)-one]	
3.6 ± 0.7 µM	4.1 ± 0.1 µM	0.85 ± 0.01 µM	18.9 ± 1.8 µM	≥ 50 µM	163 °C	C=CCON=C1c2ccccc2-n2c1nc1ccccc1c2=O [Compound 1c, 6-((allyloxy)imino)indolo[2,1-b]quinazolin-12(6H)-one]	
19.5 ± 3.5 µM	17.5 ± 2.1 µM	1.5 ± 0.6 µM	≥ 50 µM	≥ 50 µM	224 °C	N#CCON=C1c2ccccc2-n2c1nc1ccccc1c2=O [Compound 1e, 2-(((12-oxoindolo[2,1-b]quinazolin-6(12H)-ylidene)amino)oxy)acetonitrile]	JNK-3 selectivity over JNK-1 ([3]; ratio of binding affinities): > 10 fold; JNK-3 selectivity over JNK-2 ([3]; ratio of binding affinities): > 10 fold
		≥ 30 µM	≥ 50 µM	≥ 50 µM	206 °C	O=c1c2ccccc2nc2n1-c1ccccc1C2=NOCc1ccccc1 [Compound 1f, 6-((benzyloxy)imino)indolo[2,1-b]quinazolin-12(6H)-one]	
		≥ 30 µM	≥ 50 µM	≥ 50 µM	183 °C	O=c1c2ccccc2nc2n1-c1ccccc1C2=NOCc1c(F)c(F)c(F)c(F)c1F [Compound 1g, 6-(((pentafluorophenyl)methoxy)imino)indolo[2,1-b]quinazolin-12(6H)-one]	
			≥ 50 µM	≥ 50 µM	219 °C	O=c1c2ccccc2nc2n1-c1ccccc1C2=NOCc1ccc([N+](=O)[O-])cc1 [Compound 1h, 6-(((4-nitrobenzyl)oxy)imino)indolo[2,1-b]quinazolin-12(6H)-one]	Solubility [6]: Poor solubility ^b
4 ± 0.9 µM	3.9 ± 0.4 µM	1.5 ± 0.1 µM	≥ 50 µM	≥ 50 µM	199 to 200 °C	O=c1c2ccccc2nc2n1-c1ccccc1C2=NOCc1ccccn1 [Compound 1i, 6-((pyridin-2-ylmethoxy)imino)indolo[2,1-b]quinazolin-12(6H)-one]	
			≥ 50 µM	≥ 50 µM	> 400 °C (dec.)	NN=C1c2ccccc2-n2c1nc1ccccc1c2=O [Compound 1m, 6-hydrazonoindolo[2,1-b]quinazolin-12(6H)-one]	Solubility [6]: Poor solubility ^b
			≥ 50 µM	≥ 50 µM	223 °C	O=c1c2ccccc2nc2n1-c1ccccc1C2=NNc1ccccc1 [Compound 1n, 6-(2-phenylhydrazono)indolo[2,1-b]quinazolin-12(6H)-one]	Solubility [6]: Poor solubility ^b
			3.3 ± 0.1 µM	6.6 ± 1.2 µM	266 °C	NC(=O)NN=C1c2ccccc2-n2c1nc1ccccc1c2=O [Compound 1o, 2-(12-oxoindolo[2,1-b]quinazolin-6(12H)-ylidene)hydrazinecarboxamide]	
						O=c1c2ccccc2nc2n1-c1ccccc1/C2=N\O [TRYP-Ox]	IC50 [9]: 3.8 ± 1.1 µM; IC50 [10]: 3.2 ± 1.2 µM

Structure (SMILES)	Kd [1]	Kd [2]	Kd [3]	IC50 [4]	IC50 [5]	melting point	also measured
CC(C)(C)ON=C1c2ccccc2-n2c1nc1ccccc1c2=O [Compound 1d, 6-(tert-butoxyimino)indolo[2,1-b]quinazolin-12(6H)-one]	9.3 ± 0.5 µM	12 ± 1.4 µM	2.3 ± 0.3 µM	≥ 50 µM	≥ 50 µM	229 °C	
CC(=O)ON=C1c2ccccc2-n2c1nc1ccccc1c2=O [Compound 1j, 6-(acetoxyimino)indolo[2,1-b]quinazolin-12(6H)-one]	0.34 ± 0.04 µM	0.49 ± 0.01 µM	0.18 ± 0.04 µM	0.8 ± 0.2 µM	1.7 ± 0.1 µM	262 °C	Inhibition of LPS-induced c-Jun (S63) phosphorylation [7]: dose-dependent inhibition; Secretion of GM-CSF ([8]; vs DMSO-treated control): completely inhibited; Secretion of IL-1α ([8]; vs DMSO-treated control): completely inhibited; Secretion of IL-1β ([8]; vs DMSO-treated control): completely inhibited; Secretion of IL-6 ([8]; vs DMSO-treated control): completely inhibited; Secretion of MCP-1 ([8]; vs DMSO-treated control): completely inhibited; Secretion of TNF ([8]; vs DMSO-treated control): completely inhibited; Effect on IFN-γ production ([8]; low production of this cytokine after LPS): inconclusive
